Assay results as given in patent US12415781B2, “Compounds with biguanidyl radical and uses thereof” (INSTITUT CURIE, priority 2018, dated 2025).
Counter-ions that a name gives are not always drawn.

How the values were obtained:
[1] = test system: MDA-MB-468 cells; experiment: Mitochondrial morphology; type: cell-based, human
[2] = Cyclic voltammetry of iron solutions
[3] = test system: MDA-MB-468 triple negative breast cancer cells; experiment: Cell viability (CellTiter-Blue), epithelial and mesenchymal (EGF-induced) states, FIG. 1C; type: cell-based, human; settings: MDA-MB-468 epithelial/mesenchymal (EGF) states, condition not named
Experimental: (§1) FIG. 1. […] (FIG. 1B) Dose response viability curves of cancer cells treated as indicated for 72 h. […] (FIG. 1D) Dose response viability curves of HMLER cells in epithelial and mesenchymal states treated as indicated for 72 h. Data points and error bars, mean values and s.d. of three independent biological replicates.
(§2) Cell culture. Dulbecco's Phosphate-Buffered Saline (14190-094, 500 mL, Gibco), Dulbecco's Modified Eagle Medium (DMEM)/F12 (31331-028, 500 mL, Gibco), DMEM GlutaMAX™ (61965059, Thermo Fisher Scientific), Fetal Bovine Serum (FBS, 10270-106, Gibco), Hydrocortisone (H0888, Sigma Aldrich), Insulin (I0516 or I9278, Sigma Aldrich), PEN-STREP (DE17-602E, BioWhittaker, Lonza), Puromycin dihydrochloride (A11138-02, Life Technologies). MCF-7 (ATCC®, HTB-22™), MDA-MB-231 (ATCC®, HTB-26™), MDA-MB-468 (ATCC®, HTB-132™) and circulating tumor cells were grown in DMEM supplemented with 10% FBS and 1% penicillin (100 U/mL), streptomycin (100 μg/mL) and incubated at 37° C. with 5% CO2. To induce EMT, cells were treated with epidermal growth factor EGF (100 ng/ml) (Miltenyi Biotec) for 72 h. The human mammary epithelial cell line infected with a retrovirus carrying hTERT, SV40 and the oncogenic allele HrasV12, named HMLER cells were a generous gift from A. Puisieux. HMLER cells were cultured in DMEM/F12 supplemented with 10% FBS, 10 μg/mL insulin, 0.5 μg/mL hydrocortisone, 10 ng/ml hEGF, and 0.5 μg/mL puromycin. A mycoplasma test was performed using PCR mycoplasma detection kit (G238, Applied Biological Materials).
(§3) Cell viability. Cell viability was carried out by plating 1000 cells/well in 96-well plates using CellTiter-Blue® viability assay according to the manufacturer's protocol. Cells were treated as indicated for 72 h. CellTiter-Blue® reagent (G8081, Promega) was added after 72 h treatment and cells were incubated for 1-2 h before recording fluorescence intensities (ex. 560/20 nm; em. 590/10 nm) using a Perkin Elmer Wallac 1420 Victor2 Microplate Reader.

[4] = Cyclic voltammetry of a copper(I) solution; settings: metformin 2 mol equiv, quasi-reversible couples
Experimental: Cyclic voltammetry. Cyclic voltammetry experiments were performed with a three-electrode cell under argon. Saturated Calomel Electrode (SCE) was used as reference, a steady Glassy Carbon (GC) electrode of diameter 3 mm was selected as working electrode and a Platinum wire as counterelectrode. All cyclic voltammograms were recorded at RT with a μ-autolab III from Metrohm using Nova software with a scan rate of 0.5 V/s. MeCN was used as a degassed HPLC grade from Carlo Erba. Water was mQ H2O. Solutions with copper were prepared with 0.3 M nBu4NBF4 (180 mg) in MeCN (1.8 mL) and 200 μl of a 20 mM Cu(MeCN)4PF6 stock solution in MeCN (7.4 mg/mL).

[5] = test system: MDA-MB-468 cells; experiment: Cell death (Annexin V-FITC/PI) with cell death inhibitors; type: cell-based, human; settings: Z-VAD-FMK 50 μM, ferrostatin-1 10 μM, necrostatin-1 20 μM, 72 h; not rescued by ferrostatin-1 and necrostatin-1
Experimental: Cell death. […] Data were analyzed by a LSRFortessaTM flow cytometer (BD Biosciences, San Jose, CA) and processed using Cell Quest (BD Biosciences) and FlowJo (FLOWJO, LLC) software.

[6] = test system: MDA-MB-468 cells; experiment: Mitochondrial ROS levels (MitoSOX Red, flow cytometry); type: cell-based, human
Experimental: ROS levels. Mitochondrial ROS was measured using MitoSOX™ Red Mitochondrial Superoxide Indicator (M36008, Thermo Fisher Scientific) according to the manufacturer's protocol.

[7] = test system: MDA-MB-468 cells; experiment: EGF-induced epithelial-to-mesenchymal transition (E-cadherin/phalloidin imaging, Western blot of markers, CD44/CD24 flow cytometry); type: cell-based, human; settings: 72 h; E-cadherin, phalloidin, fibronectin, vimentin, Zeb1, Snail, Slug, CD44high/CD24low proportion
Experimental: as §2
Western blotting. […] Extracts were incubated at 37° C. for 1 h.
(§4) Flow cytometry. Metal-specific probes were synthesized as previously described.

[8] = test system: triple negative human breast cancer cells and circulating tumor cells (CTC) from patients with colorectal cancer; experiment: Cell viability (CellTiter-Blue), dose response of cancer cells, FIG. 1B; type: cell-based; settings: 72 h, cell line not named
Experimental: as §1, §2, §3

[9] = test system: MDA-MB-468 cells; experiment: Mitochondrial membrane potential (MitoProbe JC-1); type: cell-based, human
Experimental: Mitochondrial membrane potential. Measurements were performed using the MitoProbe™ JC-1 assay kit (M34152, Thermo Fischer Scientific) according to the manufacturer's protocol. In brief, cells were treated with 2 μM JC-1 or CCCP ([…]) control for the indicated time.

[10] = test system: MDA-MB-468 cells; experiment: Mitochondrial copper(II) levels, turn-off fluorescent probe (microscopy, flow cytometry); type: cell-based, human; settings: 48 h, reduction in fluorescence, metformin 12 mM, metforminyn 2 mM unless stated otherwise
Experimental: FIG. 2. […] Scale bar, 10 μm. […] Scale bar, 10 μm.
as §4
Copper and iron levels. Cells were incubated with the relevant probes as described in Reagents section. Cells were then analyzed either by fluorescence microscopy or flow cytometry as described in Cell Imaging and Flow Cytometry sections.

SMILES: CN(C)C(=N)NC(=N)N [metformin, 1,1-Dimethylbiguanide hydrochloride]
- mitochondrial morphology [1]: alteration of mitochondrial morphology
- redox properties of iron (cyclic voltammetry) [2]: altered the redox properties of this metal
- IC50 ([3]; Homo sapiens, MDA-MB-468, 72 h, 1st of four values listed): 24.3 mM
- IC50 ([3]; Homo sapiens, MDA-MB-468, 72 h, 2nd of four values listed): 12.1 mM
- IC50 ([3]; Homo sapiens, MDA-MB-468, 72 h, 3rd of four values listed): 5.5 mM
- IC50 ([3]; Homo sapiens, MDA-MB-468, 72 h, 4th of four values listed): 2.3 mM
- redox properties of copper (cyclic voltammetry) [4]: altered the redox properties of copper
- rescue of compound-induced cell death by inhibitors [5]: rescued by the caspase 3 inhibitor Z-VAD-FMK
- mitochondrial reactive oxygen species (ROS) levels [6]: increased levels of reactive oxygen species (ROS)
- induction of EMT using EGF [7]: prevented
- IC50 ([8]; Homo sapiens, 1st of four values listed 'respectively'): 12.1 mM
- IC50 ([8]; Homo sapiens, 2nd of four values listed 'respectively'): 15.1 mM
- IC50 ([8]; Homo sapiens, 3rd of four values listed 'respectively'): 7.7 mM
- IC50 ([8]; Homo sapiens, 4th of four values listed 'respectively'): 10.9 mM
- mitochondrial membrane potential [9]: reduction of mitochondrial membrane potentials
- mitochondrial levels of copper(II) [10]: increased levels of copper(II)

SMILES: C#CCCN(C)C(=N)NC(=N)N [metforminyn]
- mitochondrial morphology [1]: alteration of mitochondrial morphology
- IC50 ([3]; 72 h, 1st of four values listed): 12.6 mM
- IC50 ([3]; 72 h, 2nd of four values listed): 5.2 mM
- IC50 ([3]; 72 h, 3rd of four values listed): 0.8 mM
- IC50 ([3]; 72 h, 4th of four values listed): 0.9 mM
- rescue of compound-induced cell death by inhibitors [5]: rescued by the caspase 3 inhibitor Z-VAD-FMK
- mitochondrial reactive oxygen species (ROS) levels [6]: increased levels of reactive oxygen species (ROS)
- induction of EMT using EGF [7]: prevented
- IC50 ([8]; 1st of four values listed 'respectively'): 2.5 mM
- IC50 ([8]; 2nd of four values listed 'respectively'): 4.7 mM
- IC50 ([8]; 3rd of four values listed 'respectively'): 2.8 mM
- IC50 ([8]; 4th of four values listed 'respectively'): 3.5 mM
- mitochondrial membrane potential [9]: reduction of mitochondrial membrane potentials
- mitochondrial levels of copper(II) [10]: increased levels of copper(II)
